Reference: ChEMBL document CHEMBL5678811 (Invest New Drugs, 2014)
The source made the active and inactive calls. No cut-off for these calls is given here.

Assays:
MV4-11 [1] = assay: Cell cycle arrest in human MV4-11 cells assessed as accumulation of cells at G2/M-phase at 0.04 uM measured after 24 hrs by propidium iodide staining based flow cytometry (reference value: 15.23%); type: functional
MV4-11 [2] = assay: Cell cycle arrest in human MV4-11 cells assessed as accumulation of cells at G1-phase at 0.08 uM measured after 24 hrs by propidium iodide staining based flow cytometry (reference value: 61.42%); type: functional
MV4-11 [3] = assay: Cell cycle arrest in human MV4-11 cells assessed as accumulation of cells at G2/M-phase at 0.08 uM measured after 24 hrs by propidium iodide staining based flow cytometry (reference value: 15.23%); type: functional
MV4-11 [4] = assay: Cell cycle arrest in human MV4-11 cells assessed as accumulation of cells at S-phase at 0.16 uM measured after 24 hrs by propidium iodide staining based flow cytometry (reference value: 23.35%); type: functional
MV4-11 [5] = assay: Cell cycle arrest in human MV4-11 cells assessed as accumulation of cells at G1-phase at 0.32 uM measured after 24 hrs by propidium iodide staining based flow cytometry (reference value: 61.42%); type: functional
MV4-11 [6] = assay: Cell cycle arrest in human MV4-11 cells assessed as accumulation of cells at G2/M-phase at 2.5 uM measured after 24 hrs by propidium iodide staining based flow cytometry (reference value: 15.23%); type: functional
MDA-MB-231 [7] = assay: Cell cycle arrest in human MDA-MB-231 cells assessed as accumulation of cells at G1-phase at 0.16 uM measured after 24 hrs by propidium iodide staining based flow cytometry (reference value: 50.27%); type: functional
MDA-MB-231 [8] = assay: Cell cycle arrest in human MDA-MB-231 cells assessed as accumulation of cells at S-phase at 0.16 uM measured after 24 hrs by propidium iodide staining based flow cytometry (reference value: 38.27%); type: functional
MDA-MB-231 [9] = assay: Cell cycle arrest in human MDA-MB-231 cells assessed as accumulation of cells at G1-phase at 2.5 uM measured after 24 hrs by propidium iodide staining based flow cytometry (reference value: 50.27%); type: functional
MDA-MB-468 [10] = assay: Cell cycle arrest in human MDA-MB-468 cells assessed as accumulation of cells at G2/M-phase at 0.16 uM measured after 24 hrs by propidium iodide staining based flow cytometry (reference value: 26.49%); type: functional
MDA-MB-468 [11] = assay: Cell cycle arrest in human MDA-MB-468 cells assessed as accumulation of cells at G2/M-phase at 2.5 uM measured after 24 hrs by propidium iodide staining based flow cytometry (reference value: 26.49%); type: functional
[12] = Toxicity in human COLO 205 cells xenografted CD1 nu/nu mouse assessed as body weight loss at 25 to 100 mg/kg, po administered once daily via gavage for 21 days measured twice per week during compound dosing; type: organism-based; conditions: in vivo, dose 25-100 mg/kg, time 21 day
[13] = Toxicity in human COLO 205 cells xenografted CD1 nu/nu mouse at 25 to 100 mg/kg, po administered once daily via gavage for 21 days; type: organism-based; conditions: in vivo, dose 25-100 mg/kg, time 21 day
[14] = Toxicity in human COLO 205 cells xenografted CD1 nu/nu mouse assessed as body weight loss at 50 mg/kg, po administered daily via gavage for 56 days and measured twice per week during compound dosing; type: organism-based; conditions: in vivo, 1344 h, time 56 day
[15] = Toxicity in human COLO 205 cells xenografted CD1 nu/nu mouse assessed as decrease in red cell mass at 50 mg/kg, po administered daily via gavage for 56 days and measured on day 41 to 69 by hematological analysis; type: organism-based; conditions: in vivo, 1344 h, time 41-69 day
[16] = Toxicity in human COLO 205 cells xenografted CD1 nu/nu mouse assessed as decrease in lymphocyte count at 50 mg/kg, po administered daily via gavage for 2 cycles of 3 weeks on/1 week rest and measured on day 41 to 69 by hematological analysis; type: organism-based; conditions: in vivo, time 41-69 day
[17] = Toxicity in human Calu-6 cells xenografted CD1 nu/nu mouse assessed as body weight loss at 50 mg/kg, po administered once daily via gavage for 21 days measured twice per week during compound dosing in presence of gemcitabine; type: organism-based; conditions: in vivo, time 21 day
COLO 205 [18] = conditions: Mus musculus, CD1, dose 50.0 mg/kg, route po, time lower 1.0 hrs, time upper […], TDE = time-dependent effect
COLO 205 [19] = conditions: Mus musculus, CD1, dose 50.0 mg/kg, route po, time lower 1.0 hrs, time upper […], TDE = time-dependent effect; remark: listed apart in the source
COLO 205 [20] = conditions: Mus musculus, CD1, dose 50.0 mg/kg, route po, time lower 1.0 hrs, time upper […], TDE = time-dependent effect; remark: listed apart in the source
COLO 205 [21] = conditions: Mus musculus, CD1, dose 25-50 mg/kg, route po
COLO 205 [22] = conditions: Mus musculus, CD1, dose 50.0 mg/kg, route po
COLO 205 [23] = conditions: Mus musculus, CD1, dose 50.0 mg/kg, route po; remark: listed apart in the source
COLO 205 [24] = conditions: Mus musculus, CD1, dose 50.0 mg/kg, route po; remark: listed apart in the source
COLO 205 [25] = conditions: Mus musculus, CD1, dose 50.0 mg/kg, route po; remark: listed apart in the source
COLO 205 [26] = conditions: Homo sapiens, dose 25-100 mg/kg, route po, time 35.0 day
COLO 205 [27] = conditions: Mus musculus, CD1, dose 100.0 mg/kg, route po, time 21.0 day
COLO 205 [28] = conditions: Mus musculus, CD1, dose 100.0 mg/kg, route po, time 21.0 day; remark: listed apart in the source
COLO 205 [29] = conditions: Homo sapiens, dose 50.0 mg/kg, route po, time > 56.0 day
Calu-6 = conditions: Homo sapiens, dose 50.0 mg/kg, route po, time 16.0 day
Mus musculus [30] = species on record: Mus musculus; conditions: CD1, dose 50.0 mg/kg, route po, time 22.0 day
Mus musculus [31] = species on record: Mus musculus; conditions: CD1, dose 50.0 mg/kg, route po, time 22.0 day; remark: listed apart in the source
Mus musculus [32] = species on record: Mus musculus; conditions: CD1, dose 50.0 mg/kg, route po, time 17.0 day
Mus musculus [33] = species on record: Mus musculus; conditions: CD1, dose 50.0 mg/kg, route po, time 17.0 day; remark: listed apart in the source
[34] = target: Homeodomain-interacting protein kinase 2 (Homo sapiens) (UniProt Q9H2X6); conditions: Sf21, dose 200.0 nM
Homeodomain-interacting protein kinase 2 (Homo sapiens), sequence (Q9H2X6 whole entry, looked up): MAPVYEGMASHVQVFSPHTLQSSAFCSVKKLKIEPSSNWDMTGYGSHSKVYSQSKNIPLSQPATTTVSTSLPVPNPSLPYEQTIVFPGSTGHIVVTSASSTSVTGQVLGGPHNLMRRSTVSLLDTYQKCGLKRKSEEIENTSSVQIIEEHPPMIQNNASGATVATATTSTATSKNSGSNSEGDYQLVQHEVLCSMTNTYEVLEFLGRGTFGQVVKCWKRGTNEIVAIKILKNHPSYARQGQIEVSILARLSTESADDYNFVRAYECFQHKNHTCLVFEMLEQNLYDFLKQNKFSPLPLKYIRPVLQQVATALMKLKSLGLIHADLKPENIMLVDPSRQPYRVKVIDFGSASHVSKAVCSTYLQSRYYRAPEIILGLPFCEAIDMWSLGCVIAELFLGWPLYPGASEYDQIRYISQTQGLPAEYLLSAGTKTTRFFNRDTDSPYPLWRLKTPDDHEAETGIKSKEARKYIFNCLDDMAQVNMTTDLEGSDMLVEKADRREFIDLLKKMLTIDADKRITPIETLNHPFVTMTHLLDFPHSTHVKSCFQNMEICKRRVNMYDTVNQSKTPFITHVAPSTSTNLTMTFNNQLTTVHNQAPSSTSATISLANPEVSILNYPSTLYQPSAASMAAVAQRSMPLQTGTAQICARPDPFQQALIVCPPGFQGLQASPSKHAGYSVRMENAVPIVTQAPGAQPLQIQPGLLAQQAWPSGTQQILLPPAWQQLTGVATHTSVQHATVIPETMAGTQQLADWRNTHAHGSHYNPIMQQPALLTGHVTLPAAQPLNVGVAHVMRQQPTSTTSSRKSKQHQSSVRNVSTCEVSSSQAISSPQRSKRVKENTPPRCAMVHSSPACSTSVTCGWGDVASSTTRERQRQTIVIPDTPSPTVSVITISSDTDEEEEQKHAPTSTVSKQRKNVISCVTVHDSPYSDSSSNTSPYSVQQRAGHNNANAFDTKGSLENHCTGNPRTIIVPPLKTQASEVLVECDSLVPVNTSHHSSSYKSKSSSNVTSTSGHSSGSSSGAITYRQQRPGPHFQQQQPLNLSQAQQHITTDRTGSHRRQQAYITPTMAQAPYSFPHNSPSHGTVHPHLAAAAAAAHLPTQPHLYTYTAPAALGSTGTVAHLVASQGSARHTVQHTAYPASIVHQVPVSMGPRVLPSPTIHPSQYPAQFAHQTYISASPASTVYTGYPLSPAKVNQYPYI
Description: Inhibition of recombinant human N-terminal His6-tagged HIPK2 (165 to 564 residues) expressed in baculovirus infected Sf21 insect cells at 200 nM using MBP as substrate relative to control

[35] = target: T1, Cyclin-dependent kinase 5/CDK5 activator 1 (Homo sapiens) (UniProt Q00535+Q15078); conditions: Sf21, dose 200.0 nM
T1 sequence (Q00535 whole entry): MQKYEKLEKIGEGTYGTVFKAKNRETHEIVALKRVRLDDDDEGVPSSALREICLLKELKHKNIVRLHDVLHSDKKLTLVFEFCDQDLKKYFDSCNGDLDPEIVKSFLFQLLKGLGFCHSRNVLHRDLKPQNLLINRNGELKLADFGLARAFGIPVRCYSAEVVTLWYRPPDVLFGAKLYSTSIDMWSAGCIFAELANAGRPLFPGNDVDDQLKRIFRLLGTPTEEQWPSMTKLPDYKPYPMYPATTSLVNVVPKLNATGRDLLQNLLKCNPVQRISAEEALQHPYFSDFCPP
T1 sequence (Q15078 99-307 partner limits assumed): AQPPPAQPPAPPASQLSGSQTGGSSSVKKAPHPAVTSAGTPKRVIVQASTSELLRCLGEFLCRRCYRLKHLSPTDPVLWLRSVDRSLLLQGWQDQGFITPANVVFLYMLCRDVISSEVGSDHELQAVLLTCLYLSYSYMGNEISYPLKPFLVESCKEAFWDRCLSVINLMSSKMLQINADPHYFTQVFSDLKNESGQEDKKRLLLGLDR
Description: Inhibition of recombinant human full-length N-terminal His6-tagged cdk5/N-terminal GST-tagged p35 expressed in baculovirus infected Sf21 cells at 200 nM using histone H1 as substrate relative to control

[36] = target: T1, Cyclin-dependent kinase 5/CDK5 activator 1 (Homo sapiens); conditions: Sf21, dose 200.0 nM; remark: listed apart in the source
Description: Inhibition of recombinant human full-length N-terminal His6-tagged cdk5/N-terminal GST-tagged p25 expressed in baculovirus infected Sf21 cells at 200 nM using histone H1 as substrate relative to control

CCN1CCN(Cc2ccc(Nc3ncc(F)c(-c4cc(F)c5nc(C)n(C(C)C)c5c4)n3)nc2)CC1 [ABEMACICLIB]
Activity (MV4-11 [1]): 6.21% | Activity (MV4-11 [2]): 89.44% | Activity (MV4-11 [3]): 1.97% | Activity (MV4-11 [4]): 4.59% | Activity (MV4-11 [5]): 95.5% | Activity (MV4-11 [6]): 2.96% | Activity (MDA-MB-231 [7]): 78.86% | Activity (MDA-MB-231 [8]): 17.12% | Activity (MDA-MB-231 [9]): 86.04% | Activity (MDA-MB-468 [10]): 24.55% | Activity (MDA-MB-468 [11]): 28.82% | Activity [12]: Non-Toxic | Activity [13]: Non-Toxic | Activity [14]: Non-Toxic | Activity [15]: Non-Toxic | Activity [16]: Non-Toxic | Activity [17]: Non-Toxic | inhibition (COLO 205 [18]): Tde | inhibition (COLO 205 [19]): Tde | inhibition (COLO 205 [20]): Tde | inhibition (COLO 205 [21]): Dose-Dependent Effect | inhibition (COLO 205 [22]): inactive | inhibition (COLO 205 [23]): inactive | inhibition (COLO 205 [24]): inactive | inhibition (COLO 205 [25]): inactive | TGI (COLO 205 [26]): Dose-Dependent Effect | inhibition (COLO 205 [27]): Active | inhibition (COLO 205 [28]): Active | TGI (COLO 205 [29]): Active | TGI (Calu-6): Active | inhibition (Mus musculus [30]): inactive | inhibition (Mus musculus [31]): inactive | inhibition (Mus musculus [32]): inactive | inhibition (Mus musculus [33]): Active | inhibition [34]: > 90% | inhibition [35]: > 90% | inhibition [36]: > 90%
